Laboratory results taken from PubChem BioAssay AID1919003 (Molecular Pharmacology Branch, DTP, NCI, 2023).

System: 786-0 complex spheroids with HUVEC/MSC, growth % test/control
Test: Anticancer human tumor 786-0 cell line growth inhibition [AhR];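 further: compound exposure lasted seven days before the read-out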
Conditions: for IC50: curve of first compound; for viability, T/C: stronger effect = lower value
How it was run: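 Complex tumor spheroids co-cultured with HUVEC and human MSC stroma; AhR antagonists tested in combination with standard-of-care and investigational agents. Top concentration at or near clinical Cmax (else 10 microM), half-log dilutions; growth expressed as percent test/control.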

[1] = second compound 0.1 µM, first compound 0.0316 µM
[2] = second compound 0.1 µM, first compound 0.1 µM
[3] = second compound 0.1 µM, first compound 0.316 µM
[4] = second compound 0.1 µM, first compound 1 µM
[5] = second compound 0.1 µM, first compound 3.16 µM
[6] = second compound 0.1 µM, first compound 10 µM
[7] = second compound 0.316 µM, first compound 0.0316 µM
[8] = second compound 0.316 µM, first compound 0.1 µM
[9] = second compound 0.316 µM, first compound 0.316 µM
[10] = second compound 0.316 µM, first compound 1 µM
[11] = second compound 0.316 µM, first compound 3.16 µM
[12] = second compound 0.316 µM, first compound 10 µM
[13] = second compound 1 µM, first compound 0.0316 µM
[14] = second compound 1 µM, first compound 0.1 µM
[15] = second compound 1 µM, first compound 0.316 µM
[16] = second compound 1 µM, first compound 1 µM
[17] = second compound 1 µM, first compound 3.16 µM
[18] = second compound 1 µM, first compound 10 µM
[19] = second compound 3.16 µM, first compound 0.0316 µM
[20] = second compound 3.16 µM, first compound 0.1 µM
[21] = second compound 3.16 µM, first compound 0.316 µM
[22] = second compound 3.16 µM, first compound 1 µM
[23] = second compound 3.16 µM, first compound 3.16 µM
[24] = second compound 3.16 µM, first compound 10 µM
[25] = second compound 10 µM, first compound 0.0316 µM
[26] = second compound 10 µM, first compound 0.1 µM
[27] = second compound 10 µM, first compound 0.316 µM
[28] = second compound 10 µM, first compound 1 µM
[29] = second compound 10 µM, first compound 3.16 µM
[30] = second compound 10 µM, first compound 10 µM
[31] = second compound 0.1 µM, first compound 0.00949 µM
[32] = second compound 0.1 µM, first compound 0.03 µM
[33] = second compound 0.1 µM, first compound 0.0949 µM
[34] = second compound 0.1 µM, first compound 0.3 µM
[35] = second compound 0.1 µM, first compound 0.949 µM
[36] = second compound 0.1 µM, first compound 3 µM
[37] = second compound 0.316 µM, first compound 0.00949 µM
[38] = second compound 0.316 µM, first compound 0.03 µM
[39] = second compound 0.316 µM, first compound 0.0949 µM
[40] = second compound 0.316 µM, first compound 0.3 µM
[41] = second compound 0.316 µM, first compound 0.949 µM
[42] = second compound 0.316 µM, first compound 3 µM
[43] = second compound 1 µM, first compound 0.00949 µM
[44] = second compound 1 µM, first compound 0.03 µM
[45] = second compound 1 µM, first compound 0.0949 µM
[46] = second compound 1 µM, first compound 0.3 µM
[47] = second compound 1 µM, first compound 0.949 µM
[48] = second compound 1 µM, first compound 3 µM
[49] = second compound 3.16 µM, first compound 0.00949 µM
[50] = second compound 3.16 µM, first compound 0.03 µM
[51] = second compound 3.16 µM, first compound 0.0949 µM
[52] = second compound 3.16 µM, first compound 0.3 µM
[53] = second compound 3.16 µM, first compound 0.949 µM
[54] = second compound 3.16 µM, first compound 3 µM
[55] = second compound 10 µM, first compound 0.00949 µM
[56] = second compound 10 µM, first compound 0.03 µM
[57] = second compound 10 µM, first compound 0.0949 µM
[58] = second compound 10 µM, first compound 0.3 µM
[59] = second compound 10 µM, first compound 0.949 µM
[60] = second compound 10 µM, first compound 3 µM

## CC1(C)CCC(CN2CCN(c3ccc(C(=O)NS(=O)(=O)c4ccc(NCC5CCOCC5)c([N+](=O)[O-])c4)c(Oc4cnc5[nH]ccc5c4)c3)CC2)=C(c2ccc(Cl)cc2)C1 + Cc1ccccc1N=Nc1ccc(NC(=O)c2ccnn2C)c(C)c1
Second compound 0.1 µM
  IC50: > 10 µM
Second compound 0.316 µM
  IC50: > 10 µM
Second compound 1 µM
  IC50: > 10 µM
Second compound 3.16 µM
  IC50: > 10 µM
Second compound 10 µM
  IC50: > 10 µM
[1]
  viability, T/C: 97.2%
[2]
  viability, T/C: 103%
[3]
  viability, T/C: 95.2%
[4]
  viability, T/C: 109%
[5]
  viability, T/C: 89.5%
[6]
  viability, T/C: 83.8%
[7]
  viability, T/C: 109%
[8]
  viability, T/C: 99%
[9]
  viability, T/C: 102%
[10]
  viability, T/C: 106%
[11]
  viability, T/C: 97.8%
[12]
  viability, T/C: 77.9%
[13]
  viability, T/C: 97.5%
[14]
  viability, T/C: 95.1%
[15]
  viability, T/C: 96.7%
[16]
  viability, T/C: 99.4%
[17]
  viability, T/C: 91.8%
[18]
  viability, T/C: 80%
[19]
  viability, T/C: 95.6%
[20]
  viability, T/C: 96.9%
[21]
  viability, T/C: 99.2%
[22]
  viability, T/C: 90.4%
[23]
  viability, T/C: 77.1%
[24]
  viability, T/C: 82.9%
[25]
  viability, T/C: 94.6%
[26]
  viability, T/C: 96.3%
[27]
  viability, T/C: 88.3%
[28]
  viability, T/C: 87.8%
[29]
  viability, T/C: 75.7%
[30]
  viability, T/C: 65.5%

## CC1COCCN1c1cc(C2(S(C)(=N)=O)CC2)nc(-c2ccnc3[nH]ccc23)n1 (stereo not given) + Cc1ccccc1N=Nc1ccc(NC(=O)c2ccnn2C)c(C)c1
Second compound 0.1 µM
  IC50: 6.08 µM
Second compound 0.316 µM
  IC50: 5.93 µM
Second compound 1 µM
  IC50: 6.52 µM
Second compound 3.16 µM
  IC50: 6.44 µM
Second compound 10 µM
  IC50: 5.28 µM
[1]
  viability, T/C: 96.9%
[2]
  viability, T/C: 103%
[3]
  viability, T/C: 97.7%
[4]
  viability, T/C: 101%
[5]
  viability, T/C: 79.6%
[6]
  viability, T/C: 27.6%
[7]
  viability, T/C: 92%
[8]
  viability, T/C: 97.6%
[9]
  viability, T/C: 102%
[10]
  viability, T/C: 106%
[11]
  viability, T/C: 72.7%
[12]
  viability, T/C: 31.1%
[13]
  viability, T/C: 98%
[14]
  viability, T/C: 96.8%
[15]
  viability, T/C: 103%
[16]
  viability, T/C: 93.2%
[17]
  viability, T/C: 79.5%
[18]
  viability, T/C: 32.8%
[19]
  viability, T/C: 99.9%
[20]
  viability, T/C: 105%
[21]
  viability, T/C: 91.5%
[22]
  viability, T/C: 89.2%
[23]
  viability, T/C: 70.3%
[24]
  viability, T/C: 37.1%
[25]
  viability, T/C: 97.7%
[26]
  viability, T/C: 97.2%
[27]
  viability, T/C: 102%
[28]
  viability, T/C: 88.5%
[29]
  viability, T/C: 62.5%
[30]
  viability, T/C: 34.8%

## CCN(c1cc(-c2ccc(CN3CCOCC3)cc2)cc(C(=O)NCc2c(C)cc(C)[nH]c2=O)c1C)C1CCOCC1 + Cc1ccccc1N=Nc1ccc(NC(=O)c2ccnn2C)c(C)c1
Second compound 0.1 µM
  IC50: > 3 µM
Second compound 0.316 µM
  IC50: > 3 µM
Second compound 1 µM
  IC50: > 3 µM
Second compound 3.16 µM
  IC50: > 3 µM
Second compound 10 µM
  IC50: > 3 µM
[31]
  viability, T/C: 106%
[32]
  viability, T/C: 104%
[33]
  viability, T/C: 98.3%
[34]
  viability, T/C: 107%
[35]
  viability, T/C: 101%
[36]
  viability, T/C: 110%
[37]
  viability, T/C: 104%
[38]
  viability, T/C: 106%
[39]
  viability, T/C: 116%
[40]
  viability, T/C: 111%
[41]
  viability, T/C: 119%
[42]
  viability, T/C: 118%
[43]
  viability, T/C: 112%
[44]
  viability, T/C: 106%
[45]
  viability, T/C: 106%
[46]
  viability, T/C: 97.4%
[47]
  viability, T/C: 102%
[48]
  viability, T/C: 98.6%
[49]
  viability, T/C: 109%
[50]
  viability, T/C: 114%
[51]
  viability, T/C: 102%
[52]
  viability, T/C: 93.3%
[53]
  viability, T/C: 116%
[54]
  viability, T/C: 94.2%
[55]
  viability, T/C: 106%
[56]
  viability, T/C: 102%
[57]
  viability, T/C: 89.2%
[58]
  viability, T/C: 100%
[59]
  viability, T/C: 98.3%
[60]
  viability, T/C: 103%

## Nc1ncn(C2CC(O)C(CO)S2)c(=O)n1 (stereo not given) + Cc1ccccc1N=Nc1ccc(NC(=O)c2ccnn2C)c(C)c1
Second compound 0.1 µM
  IC50: > 0.3 µM
Second compound 0.316 µM
  IC50: > 0.3 µM
Second compound 1 µM
  IC50: > 0.3 µM
Second compound 3.16 µM
  IC50: > 0.3 µM
Second compound 10 µM
  IC50: > 0.3 µM
Second compound 0.1 µM, first compound 0.000949 µM
  viability, T/C: 102%
Second compound 0.1 µM, first compound 0.003 µM
  viability, T/C: 99.8%
[31]
  viability, T/C: 105%
[32]
  viability, T/C: 99.6%
[33]
  viability, T/C: 83.6%
[34]
  viability, T/C: 68.7%
Second compound 0.316 µM, first compound 0.000949 µM
  viability, T/C: 100%
Second compound 0.316 µM, first compound 0.003 µM
  viability, T/C: 100%
[37]
  viability, T/C: 103%
[38]
  viability, T/C: 98.2%
[39]
  viability, T/C: 100%
[40]
  viability, T/C: 73.1%
Second compound 1 µM, first compound 0.000949 µM
  viability, T/C: 99.6%
Second compound 1 µM, first compound 0.003 µM
  viability, T/C: 96.5%
[43]
  viability, T/C: 112%
[44]
  viability, T/C: 97.1%
[45]
  viability, T/C: 91.2%
[46]
  viability, T/C: 75%
Second compound 3.16 µM, first compound 0.000949 µM
  viability, T/C: 93.3%
Second compound 3.16 µM, first compound 0.003 µM
  viability, T/C: 99.9%
[49]
  viability, T/C: 94%
[50]
  viability, T/C: 101%
[51]
  viability, T/C: 86%
[52]
  viability, T/C: 69.6%
Second compound 10 µM, first compound 0.000949 µM
  viability, T/C: 91.1%
Second compound 10 µM, first compound 0.003 µM
  viability, T/C: 108%
[55]
  viability, T/C: 90.8%
[56]
  viability, T/C: 88.2%
[57]
  viability, T/C: 82.8%
[58]
  viability, T/C: 63.4%

## O=C(C=Cn1cnc(-c2cc(C(F)(F)F)cc(C(F)(F)F)c2)n1)NNc1cnccn1 + Cc1ccccc1N=Nc1ccc(NC(=O)c2ccnn2C)c(C)c1
Second compound 0.1 µM
  IC50: 0.542 µM
Second compound 0.316 µM
  IC50: 0.52 µM
Second compound 1 µM
  IC50: 0.47 µM
Second compound 3.16 µM
  IC50: 0.566 µM
Second compound 10 µM
  IC50: 0.424 µM
[31]
  viability, T/C: 103%
[32]
  viability, T/C: 108%
[33]
  viability, T/C: 104%
[34]
  viability, T/C: 59.5%
[35]
  viability, T/C: 41.4%
[36]
  viability, T/C: 15.4%
[37]
  viability, T/C: 109%
[38]
  viability, T/C: 105%
[39]
  viability, T/C: 115%
[40]
  viability, T/C: 64.7%
[41]
  viability, T/C: 38%
[42]
  viability, T/C: 17.3%
[43]
  viability, T/C: 113%
[44]
  viability, T/C: 100%
[45]
  viability, T/C: 104%
[46]
  viability, T/C: 55.8%
[47]
  viability, T/C: 38%
[48]
  viability, T/C: 16.4%
[49]
  viability, T/C: 91.6%
[50]
  viability, T/C: 92.7%
[51]
  viability, T/C: 101%
[52]
  viability, T/C: 63.7%
[53]
  viability, T/C: 38.6%
[54]
  viability, T/C: 18.2%
[55]
  viability, T/C: 88.4%
[56]
  viability, T/C: 84.8%
[57]
  viability, T/C: 74.5%
[58]
  viability, T/C: 56.4%
[59]
  viability, T/C: 34.8%
[60]
  viability, T/C: 17.3%
